ChEMBL document CHEMBL1129993, “Synthesis and biological characterization of 1,4,5,6-tetrahydropyrimidine and 2-amino-3,4,5,6-tetrahydropyridine derivatives as selective m1 agonists” (J Med Chem, 1997)
pEC50, pIC50, pKi: −log10 of the molar value.

Key:
[1] = target: T1, Muscarinic acetylcholine receptor M1 (Mus musculus, UniProt P12657)
T1 sequence (P12657 whole entry): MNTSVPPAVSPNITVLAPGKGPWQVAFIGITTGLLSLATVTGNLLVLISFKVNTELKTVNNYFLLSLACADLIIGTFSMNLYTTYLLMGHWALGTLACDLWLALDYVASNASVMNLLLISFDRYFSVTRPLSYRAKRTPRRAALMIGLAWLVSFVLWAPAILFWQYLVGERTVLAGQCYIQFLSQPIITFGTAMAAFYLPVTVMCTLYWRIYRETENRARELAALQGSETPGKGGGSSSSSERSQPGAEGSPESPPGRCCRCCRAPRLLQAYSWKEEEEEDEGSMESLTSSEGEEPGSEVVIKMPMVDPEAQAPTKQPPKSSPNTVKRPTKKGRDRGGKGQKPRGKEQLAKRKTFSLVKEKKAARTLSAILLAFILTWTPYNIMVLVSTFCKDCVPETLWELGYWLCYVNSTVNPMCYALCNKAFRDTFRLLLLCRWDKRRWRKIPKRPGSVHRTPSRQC
Description: Tested against Muscarinic acetylcholine receptor M1 expressed in A9 L cell line

[2] = target: Muscarinic acetylcholine receptor M3 (Mus musculus, UniProt Q9ERZ3)
Description: Tested against Muscarinic acetylcholine receptor M3 expressed in A9 L cell line

A9 = assay: cells; settings: Mus musculus, A9L
Description: Inhibition of Forskolin-Induced cAMP production in A9 L cells expressing m2 receptors

[3] = target: T1, Muscarinic acetylcholine receptor M1; assay: biochemical
[4] = target: T1, Muscarinic acetylcholine receptor M1; assay: biochemical; remark: listed apart in the source
[5] = target: T1, Muscarinic acetylcholine receptor M1; assay: biochemical; remark: listed apart in the source
Rattus norvegicus = species on record: Rattus norvegicus; assay: Tested for agonist activity through assays of phosphoinositide (PI) metabolism in slices from rat cerebral cortex at 100 uM; format: functional

Muscarinic acetylcholine receptor M3, sequence (Q9ERZ3 whole entry): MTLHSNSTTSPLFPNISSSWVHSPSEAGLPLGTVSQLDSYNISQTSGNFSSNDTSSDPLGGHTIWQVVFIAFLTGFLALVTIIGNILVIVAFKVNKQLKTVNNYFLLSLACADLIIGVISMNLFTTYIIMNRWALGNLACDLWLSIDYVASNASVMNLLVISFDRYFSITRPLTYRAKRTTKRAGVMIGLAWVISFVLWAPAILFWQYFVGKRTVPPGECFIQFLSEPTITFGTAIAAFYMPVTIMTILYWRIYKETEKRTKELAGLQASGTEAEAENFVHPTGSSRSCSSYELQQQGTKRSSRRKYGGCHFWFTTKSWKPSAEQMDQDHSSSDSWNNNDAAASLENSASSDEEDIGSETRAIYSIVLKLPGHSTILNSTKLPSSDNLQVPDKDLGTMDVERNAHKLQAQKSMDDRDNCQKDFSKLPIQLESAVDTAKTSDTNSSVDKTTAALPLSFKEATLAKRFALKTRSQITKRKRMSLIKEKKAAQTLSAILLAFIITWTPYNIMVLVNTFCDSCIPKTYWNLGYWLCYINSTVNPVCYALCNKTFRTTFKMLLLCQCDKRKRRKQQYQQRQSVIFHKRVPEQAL

SMILES | pEC50 [1] | pEC50 [2] | pIC50 (A9) | pKi [3] | pKi [4] | pKi [5] | Activity (Rattus norvegicus) [%]
Cc1noc(C2=CCCN(C)C2)n1 | 4.92 | 5.55 | 5.92 | 8.98 | 9.23 |  | 
CCCC#Cc1noc(C2CN=CNC2)n1 (configuration not stated) |  |  |  |  | 7.76 | 6.86 | 
Cc1noc(C2CN=CNC2)n1 (configuration not stated) | 5.27 | 5.96 | 6.96 | 8.60 | 8.64 | 7.68 | 
COC(=O)C1CN=CNC1 (configuration not stated) | 3.70 | 4.30 | 5.80 | 7.57 | 7.63 | 6.44 | 
CC#CCOC(=O)C1CN=CNC1 (configuration not stated) | 4.30 |  |  |  | 8.05 | 7.85 | 
C#CCOC(=O)C1CN=CNC1 (configuration not stated) | 4.48 | 4.74 | 6.11 |  | 8.54 | 7.38 | 
C#CCCOC(=O)C1CN=CNC1 (configuration not stated) | 3.25 |  |  |  | 7.81 | 7.51 | 
C[N+](C)(C)CCOC(N)=O.[Cl-] [CARBACHOL] |  | 5.00 | 7.00 |  |  |  | 470
C[N+](C)(C)CC#CCN1CCCC1=O [OXOTREMORINE METHIODIDE] | 6.15 |  |  |  |  |  | 
O=C1CCCN1CC#CCN1CCCC1 [OXOTREMORINE] | 6.57 |  |  |  |  |  | 
CCCCCCOc1nsnc1C1=CCCN(C)C1 [XANOMELINE] |  | 4.96 | 5.15 |  |  |  | 

The next lines start with results.

pEC50 [1] | pEC50 [2] | SMILES | pIC50 (A9) | pKi [3] | pKi [4] | pKi [5] | Activity (Rattus norvegicus) [%]
 | 4.96 | COCc1noc(C2CN=CNC2)n1 (configuration not stated) |  |  |  |  | 
4.85 | 5.24 | CSCc1noc(C2CN=CNC2)n1 (configuration not stated) |  |  |  |  | 
4.92 | 5.00 | CCc1noc(C2CN=CNC2)n1 (configuration not stated) |  |  |  |  | 
3.80 |  | COC(=O)C1CN=C(N)NC1 (configuration not stated) |  |  |  |  | 
4.36 | 4.77 | CCOC(=O)C1CN=CNC1 (configuration not stated) |  |  |  |  | 
3.52 |  | C#CCOC(=O)C1CN=C(N)NC1 (configuration not stated) |  |  |  |  | 
4.10 |  | C#C/C(C)=C/COC(=O)C1CN=CNC1 (configuration not stated) |  |  |  |  | 
4.39 | 4.85 | COC(=O)C1CCC(N)=NC1 (configuration not stated) |  |  |  |  | 
3.94 | 4.92 | C#CCOC(=O)C1CCC(N)=NC1 (configuration not stated) | 6.36 |  |  |  | 
